Source: patent US20080033029A1, “Treating Digestive Tract Conditions” (MAYO FOUNDATION FOR MEDICAL EDUCATION AND RESEARCH, priority 2004, published 2008)

Experiments:
[1] = test system: ICC (interstitial cells of Cajal); assay: Organotypic culture of adult mouse small intestine explants: ICC number; assay type: cell-based; conditions: 5HT 1 μM twice daily; explants from 6 month old mice; fixed at day 8; c-Kit staining, confocal 3D
Description: Briefly, one cm segments of mouse small intestine were cut, pinned flat mucosa side up, stripped of mucosa and submucosa layers, and placed into fresh, sterile-filtered Kreb's solution with 3 mM antibiotic. Krebs was removed, and DMEM (Dulbecco's Modified Eagle's Media) with 10% FBS (Fetal Bovine Serum) and 1% antibiotic/antimycotic was added to the culture. […] In the control explant, medium was added without 5HT. The tissue was fixed at day 8 and stained using an antibody to c-Kit. […]

[2] = test system: ICC (interstitial cells of Cajal); assay: ICC culture: number of ICC with or without 5HT; assay type: cell-based, mouse; conditions: 5HT 1 μM added every 12 hours for 24 hours; ICC from 6 day old Balb/C mice; c-kit antibody; untreated 8±0.5; P<0.0004; FIG. 1
Description: (§1) Blinded parallel cultures were established (n=2, 6 day old Balb/C mice yielding 6 coverslips). […] ICC were identified using an antibody to c-kit and counted. Mast cells, which were identified by their characteristic size and round shape, were not included in the analysis.

[3] = test system: ICC (interstitial cells of Cajal); 5HT2B receptor; assay: ICC culture: effect of 5HT2B receptor antagonist on the 5HT-induced increase in ICC number
Description: as §1

Row | Compound | number of ICC in explant versus control explant [1] | number of ICC per HPF [2] [ICC per HPF] | number of ICC per HPF [3] [ICC per HPF]
1 | NCCc1c[nH]c2ccc(O)cc12 [5HT, Serotonin] | greater number of ICC | 14±0.4 | 
2 | Cc1cc(NC(=O)Nc2ccc3c(ccn3C)c2)sn1 [SB204741] |  |  | 9±0.2
